Results published in patent US20240368139A1, “NOVEL MODULATORS OF EHMT1 AND EHMT2 AND THERAPEUTIC USE THEREOF” (Tango Therapeutics, Inc., priority 2021, published 2024).
Where two headings read alike, the source gives them in different places.

Experiments:
hERG potassium channels = hERG potassium channels (Homo sapiens, UniProt Q12809); test: In vitro hERG assay (SyncroPatch whole-cell recording); settings: room temperature
human EHMT2 913-1193 = biological target: T1, human EHMT2 913-1193 (Homo sapiens, UniProt Q96KQ7); test: EHMT2 enzyme assay on histone peptide substrate (3H-SAM SPA); settings: EHMT2 IC50, recombinant human EHMT2 913-1193, histone peptide substrate
T1 sequence (Q96KQ7 913-1193): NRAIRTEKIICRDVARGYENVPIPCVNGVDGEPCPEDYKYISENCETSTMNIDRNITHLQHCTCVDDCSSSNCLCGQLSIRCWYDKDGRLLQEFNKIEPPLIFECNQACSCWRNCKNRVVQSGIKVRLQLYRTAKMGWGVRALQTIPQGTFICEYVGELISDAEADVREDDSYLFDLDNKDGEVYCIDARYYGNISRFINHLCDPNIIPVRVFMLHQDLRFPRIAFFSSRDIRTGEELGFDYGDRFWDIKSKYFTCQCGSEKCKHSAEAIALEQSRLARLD

human EHMT1 982-1266 = biological target: T2, human EHMT1 982-1266 (Homo sapiens, UniProt Q9H9B1); test: EHMT1 enzyme assay on histone peptide substrate (3H-SAM SPA); settings: EHMT1 IC50, recombinant human EHMT1 982-1266, histone peptide substrate
T2 sequence (Q9H9B1 982-1266): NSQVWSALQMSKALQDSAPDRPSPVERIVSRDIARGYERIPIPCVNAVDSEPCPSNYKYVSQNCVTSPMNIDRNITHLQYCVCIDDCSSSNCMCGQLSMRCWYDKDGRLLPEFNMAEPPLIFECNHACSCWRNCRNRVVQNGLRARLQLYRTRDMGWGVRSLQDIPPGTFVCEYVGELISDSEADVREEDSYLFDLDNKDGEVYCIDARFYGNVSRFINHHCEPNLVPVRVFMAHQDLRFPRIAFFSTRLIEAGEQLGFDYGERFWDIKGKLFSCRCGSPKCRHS

H3K9me2 in HCT116 cells = test: HCT116 H3K9me2 in-cell western assay; type: cell-based; settings: Homo sapiens, read-out: H3K9me2 ICW IC50
In short: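 H3K9me2 signal (800 nm) was normalized to DRAQ5 DNA stain (700 nm) in an in-cell western. Cells were fixed with paraformaldehyde and probed overnight at 4° C with primary antibody.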

[1] = HCT-116, 72 h, HCT116 cells, 72 hours incubation
[2] = hERG IC50, CHO cells stably expressing hERG

hERG potassium channels, sequence (Q12809 whole entry): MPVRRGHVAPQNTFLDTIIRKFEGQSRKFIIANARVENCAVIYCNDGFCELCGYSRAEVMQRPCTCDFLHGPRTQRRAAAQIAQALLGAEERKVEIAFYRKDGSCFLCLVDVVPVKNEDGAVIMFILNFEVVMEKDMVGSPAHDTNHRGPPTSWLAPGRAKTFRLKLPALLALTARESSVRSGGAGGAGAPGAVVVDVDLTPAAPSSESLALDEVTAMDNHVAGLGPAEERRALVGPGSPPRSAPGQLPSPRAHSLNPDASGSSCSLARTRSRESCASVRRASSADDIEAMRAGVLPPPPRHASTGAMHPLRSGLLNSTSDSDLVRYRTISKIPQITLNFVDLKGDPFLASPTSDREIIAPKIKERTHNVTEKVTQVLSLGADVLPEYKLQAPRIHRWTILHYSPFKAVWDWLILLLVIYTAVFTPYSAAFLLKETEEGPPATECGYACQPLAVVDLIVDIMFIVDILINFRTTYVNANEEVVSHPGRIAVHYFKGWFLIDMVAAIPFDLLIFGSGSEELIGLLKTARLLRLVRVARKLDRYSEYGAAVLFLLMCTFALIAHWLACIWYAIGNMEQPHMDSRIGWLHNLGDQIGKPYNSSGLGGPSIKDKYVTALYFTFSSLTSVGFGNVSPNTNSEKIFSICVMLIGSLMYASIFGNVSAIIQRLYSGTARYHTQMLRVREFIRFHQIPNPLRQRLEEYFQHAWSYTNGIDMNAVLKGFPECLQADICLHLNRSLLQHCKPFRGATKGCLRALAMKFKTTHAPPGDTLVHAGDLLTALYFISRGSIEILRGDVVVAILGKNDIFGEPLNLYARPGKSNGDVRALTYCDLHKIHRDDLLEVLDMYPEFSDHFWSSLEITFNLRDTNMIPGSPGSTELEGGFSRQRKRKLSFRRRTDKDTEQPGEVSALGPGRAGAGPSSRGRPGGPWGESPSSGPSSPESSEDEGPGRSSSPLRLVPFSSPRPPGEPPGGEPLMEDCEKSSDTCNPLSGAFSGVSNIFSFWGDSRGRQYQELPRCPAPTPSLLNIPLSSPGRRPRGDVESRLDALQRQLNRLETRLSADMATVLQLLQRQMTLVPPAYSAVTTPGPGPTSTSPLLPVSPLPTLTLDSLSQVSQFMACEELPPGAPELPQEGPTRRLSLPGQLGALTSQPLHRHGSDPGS

IC50 (human EHMT2 913-1193) [nM] | IC50 (human EHMT1 982-1266) [nM] | IC50 (H3K9me2 in HCT116 cells; [1]) [nM] | SMILES | IC50 (hERG potassium channels; hERG IC50, SyncroPatch) [nM] | IC50 (hERG potassium channels; [2]) [nM] | IC50 (H3K9me2 in HCT116 cells; HCT-116, 72 h) [nM] | IC50 (H3K9me2 in HCT116 cells; HCT-116, HCT116 cells, 72 hours incubation) [nM]
– | – | – | CNc1cc(C)nc(Nc2cc3c(c(C4=CCNCCC4)c2F)OCC3C)n1 (single isomer, unassigned) [Compound 170] | < 2000 | – | – | –
< 100 | < 100 | – | CNc1cc(C)nc(Nc2cc3c(c(C4=CCNCC(O)C4)c2C)OCC3)n1 (single isomer, unassigned) [Compound 370] | > 10000 | – | – | –
< 100 | – | – | CNc1cc(C)nc(Nc2cc3c(c(C4=CCNCC(O)C4)c2Cl)OCC3)n1 (single isomer, unassigned) [Compound 384] | > 10000 | – | – | –
– | – | < 100 | CNc1cc(C)nc(Nc2cc3c(c(C4=CCNCCC4)c2F)OCC3)n1 [Compound 291, N2-[6-fluoro-7-(2,3,4,7-tetrahydro-1H-azepin-5-yl)-2,3-dihydrobenzofuran-5-yl]-N4,6-dimethyl-pyrimidine-2,4-diamine] | > 10000 | > 10000 | – | –
< 100 | < 100 | < 100 | [2H]C([2H])([2H])Nc1cc(C)nc(Nc2cc3c(c(C4=CCNCCC4)c2)OCC3)n1 [Compound 306] | – | – | – | –
500 to 2000 | 100 to 500 | 500 to 2000 | CNc1cc(C)nc(Nc2cc3c(c(C4=CCCNCC4C)c2)OCC3)n1 (centres unmarked) [Compound 307] | – | – | – | –
< 100 | < 100 | 100 to 500 | Cc1cc(NCC2CCOCC2)nc(Nc2cc3c(c(C4=CCNCCC4)c2)OCC3)n1 [Compound 308] | – | – | – | –
500 to 2000 | 100 to 500 | 500 to 2000 | Cc1cc(NCC(F)(F)F)cc(Nc2cc3c(c(C4=CCNCCC4)c2)OCC3)n1 [Compound 309] | – | – | – | –
< 100 | < 100 | 100 to 500 | COCCCNc1cc(C)nc(Nc2cc3c(c(C4=CCNCCC4)c2)OCC3)n1 [Compound 310] | – | – | – | –
500 to 2000 | 100 to 500 | 100 to 500 | CNc1cc(C)nc(Nc2cc3c(c(C4=CCNCCC4)c2)COC3)n1 [Compound 311] | – | – | – | –
500 to 2000 | 100 to 500 | 500 to 2000 | Cc1cc(NC2COC2)cc(Nc2cc3c(c(C4=CCN(C)CCC4)c2)OCC3)n1 [Compound 312] | – | – | – | –
100 to 500 | 100 to 500 | 500 to 2000 | Cc1cc(NC2COC2)cc(Nc2cc3c(c(C4=CCNCCC4)c2)OCC3)n1 [Compound 313] | – | – | – | –
500 to 2000 | 100 to 500 | 100 to 500 | CNc1cc(C2CC2)nc(Nc2cc3c(c(C4=CCN(C)CCC4)c2)OCC3)n1 [Compound 314] | – | – | – | –
100 to 500 | 100 to 500 | 100 to 500 | CCNc1cc(C)nc(Nc2cc3c(c(C4=CCNCCC4)c2)OCC3)n1 [Compound 315] | – | – | – | –
100 to 500 | < 100 | 100 to 500 | CCc1cc(NC)nc(Nc2cc3c(c(C4=CCN(C)CCC4)c2)OCC3)n1 [Compound 316] | – | – | – | –
100 to 500 | < 100 | < 100 | CNc1cc(C2CC2)nc(Nc2cc3c(c(C4=CCNCCC4)c2)OCC3)n1 [Compound 317] | – | – | – | –
500 to 2000 | 100 to 500 | 100 to 500 | Cc1cc(NC2CCC2)nc(Nc2cc3c(c(C4=CCN(C)CCC4)c2)OCC3)n1 [Compound 318] | – | – | – | –

IC50 (human EHMT2 913-1193) [nM] | IC50 (human EHMT1 982-1266) [nM] | IC50 (H3K9me2 in HCT116 cells; [1]) [nM] | SMILES | IC50 (hERG potassium channels; hERG IC50, SyncroPatch) [nM] | IC50 (hERG potassium channels; [2]) [nM] | IC50 (H3K9me2 in HCT116 cells; HCT-116, 72 h) [nM] | IC50 (H3K9me2 in HCT116 cells; HCT-116, HCT116 cells, 72 hours incubation) [nM]
< 100 | < 100 | < 100 | CCc1cc(NC)nc(Nc2cc3c(c(C4=CCNCCC4)c2)OCC3)n1 [Compound 319] | – | – | – | –
500 to 2000 | 100 to 500 | 100 to 500 | Cc1cc(NCC(F)(F)F)nc(Nc2cc3c(c(C4=CCN(C)CCC4)c2)OCC3)n1 [Compound 320] | – | – | – | –
100 to 500 | < 100 | 100 to 500 | CCNc1cc(C)nc(Nc2cc3c(c(C4=CCN(C)CCC4)c2)OCC3)n1 [Compound 321] | – | – | – | –
500 to 2000 | 100 to 500 | 500 to 2000 | CNc1cc(C)nc(Nc2cc3c(c(C4=CCN(C)CCC4)c2)CCO3)n1 [Compound 333] | – | – | – | –
500 to 2000 | 100 to 500 | 100 to 500 | CNc1cc(C)nc(Nc2cc3c(c(N4C[C@H]5CNC[C@H]5C4)c2)OCCC3)n1 [Compound 338] | – | – | – | –
500 to 2000 | 100 to 500 | 100 to 500 | CNc1cc(C)nc(Nc2cc3c(c(N4CCCNCC4)c2)OCCC3)n1 [Compound 339] | – | – | – | –
100 to 500 | < 100 | 100 to 500 | CNc1cc(C)nc(Nc2cc3c(c(C4C[C@H]5CNC[C@H]5C4)c2)OCCC3)n1 (some centres unmarked) [Compound 340] | – | – | – | –
500 to 2000 | 100 to 500 | 500 to 2000 | CNc1cc(C)nc(Nc2cc3c(c([C@H]4C[C@H]5CNC[C@H]5C4)c2)OCO3)n1 [Compound 342] | – | – | – | –
500 to 2000 | 100 to 500 | 100 to 500 | CNc1cc(C)nc(Nc2cc3c(c(C4CCCNCC4)c2)OCO3)n1 (centres unmarked) [Compound 343] | – | – | – | –
500 to 2000 | 100 to 500 | 100 to 500 | CNc1cc(C)nc(Nc2cc3c(c(C4=C[C@H]5CNC[C@H]5C4)c2)OCCC3)n1 [Compound 344] | – | – | – | –
> 2000 | 100 to 500 | 100 to 500 | CNc1cc(C)nc(Nc2cc3c(c(C4=CCC(N)CC4)c2)OCCC3)n1 (centres unmarked) [Compound 346] | – | – | – | –
500 to 2000 | 100 to 500 | 100 to 500 | CNc1cc(C)nc(Nc2cc3c(c(C4=C[C@H]5CNC[C@H]5C4)c2)OCO3)n1 [Compound 347] | – | – | – | –
100 to 500 | < 100 | 100 to 500 | CNc1cc(C)nc(Nc2cc3c(c(N4C[C@H]5CNC[C@H]5C4)c2F)OCC3)n1 [Compound 351, N2-[6-fluoro-7-[rac-(3aS,6aR)-2,3,3a,4,6,6a-hexahydro-1H-pyrrolo[3,4-c]pyrrol-5-yl]-2,3-dihydrobenzofuran-5-yl]-N4,6-dimethyl-pyrimidine-2,4-diamine] | – | – | – | –
< 100 | < 100 | < 100 | CNc1cc(C)nc(Nc2cc3c(c(C4=CCNCCC4)c2C)OCCC3)n1 [Compound 353, N4,6-dimethyl-N2-[7-methyl-8-(2,3,4,7-tetrahydro-1H-azepin-5-yl)chroman-6-yl]pyrimidine-2,4-diamine] | – | – | – | –
100 to 500 | < 100 | < 100 | CNc1cc(C)nc(Nc2cc3c(c(C4=CCNCCC4)c2C)OCO3)n1 [Compound 363] | – | – | – | –
500 to 2000 | 500 to 2000 | 100 to 500 | CNc1cc(C)nc(Nc2cc3c(c(C4C[C@H]5CNC[C@H]5C4)c2F)OCC3)n1 (some centres unmarked) [Compound 437, N2-[7-(1,2,3,3a,4,5,6,6a-octahydrocyclopenta[c]pyrrol-5-yl)-6-fluoro-2,3-dihydrobenzofuran-5-yl]-N4,6-dimethyl-pyrimidine-2,4-diamine] | – | – | – | –

SMILES | IC50 (human EHMT2 913-1193) [nM] | IC50 (human EHMT1 982-1266) [nM] | IC50 (H3K9me2 in HCT116 cells; [1]) [nM] | IC50 (hERG potassium channels; hERG IC50, SyncroPatch) [nM] | IC50 (hERG potassium channels; [2]) [nM] | IC50 (H3K9me2 in HCT116 cells; HCT-116, 72 h) [nM] | IC50 (H3K9me2 in HCT116 cells; HCT-116, HCT116 cells, 72 hours incubation) [nM]
CNc1cc(C)nc(Nc2cc3c(c(C4=CCNCC4)c2)OCCC3)n1 [Compound 345] | 500 to 2000 | 100 to 500 | 100 to 500 | – | – | – | –
CNc1cc(C)nc(Nc2ccc(OC)c(C3=CCN(C)CCC3)c2)n1 [Reference Compound A, reference compound] | – | < 100 | – | 5000 to 10000 | 5000 to 10000 | < 100 | –
CNc1cc(C)nc(Nc2ccc(OC)c(C3=CCNCCC3)c2)n1 [Reference Compound B, reference compound] | < 100 | – | – | 5000 to 10000 | 5000 to 10000 | – | < 100
